From article PMC11995724, “Antibiotic target discovery by integrated phenotypic and activity-based profiling of electrophilic fragments” (Cell chemical biology, 2025)

Assay: in vitro
Details: human, hek293t cells

SMILES	viability at 48 h, 25 µM [%]
C=CC(=O)N1CCC(C(=O)N2Cc3ccccc3C[C@H]2C(N)=O)CC1 [3-C19, (3S)-2-[1-(prop-2-enoyl)piperidine-4-carbonyl]-1,2,3,4-tetrahydroisoquinoline-3-carboxamide]	29.6
C=CC(=O)N(C)CC(=O)N1CCCC(CC(N)=O)CC1 (stereo not drawn) [3-C20, N-{2-[4-(carbamoylmethyl)azepan-1-yl]-2-oxoethyl}-N-methylprop-2-enamide]	68.6
C=CC(=O)NCCNS(=O)(=O)c1cc(C)sc1C [3-C21, N-[2-(2,5-dimethylthiophene-3-sulfonamido)ethyl]prop-2-enamide]	34.6
C=CC(=O)NCc1cnoc1C [3-C22, N-[(5-methyl-1,2-oxazol-4-yl)methyl]prop-2-enamide]	51.5
C=CC(=O)N(CC)CC(=O)N1CCN(c2ccc(C#N)cc2F)CC1 [3-D03, N-{2-[4-(4-cyano-2-fluorophenyl)piperazin-1-yl]-2-oxoethyl}-N-ethylprop-2-enamide]	74.4
C=CC(=O)NCc1nc(-c2ccc(F)cc2)n[nH]1 [3-D04, N-{[3-(4-fluorophenyl)-1H-1,2,4-triazol-5-yl]methyl}prop-2-enamide]	95.1
C=CC(=O)Nc1cc(NC(=O)C2(OC)CCOC2)ccc1F (stereo not drawn) [3-D05, N-[4-fluoro-3-(prop-2-enamido)phenyl]-3-methoxyoxolane-3-carboxamide]	75.8
C=CC(=O)Nc1cn(CC(F)(F)F)nc1C [3-D06, N-[3-methyl-1-(2,2,2-trifluoroethyl)-1H-pyrazol-4-yl]prop-2-enamide]	55.3
C=CC(=O)NCCC(=O)N1CCN(c2ccc(C#N)cc2F)CC1 [3-D07, N-{3-[4-(4-cyano-2-fluorophenyl)piperazin-1-yl]-3-oxopropyl}prop-2-enamide]	56.6
C=CC(=O)NCCC(=O)NC1CCSc2ccc(F)cc21 (stereo not drawn) [3-D08, N-{2-[(6-fluoro-3,4-dihydro-2H-1-benzothiopyran-4-yl)carbamoyl]ethyl}prop-2-enamide]	70.7
C=CC(=O)NCc1cn(C2CCC2)nn1 [3-D09, N-[(1-cyclobutyl-1H-1,2,3-triazol-4-yl)methyl]prop-2-enamide]	48.7
C=CC(=O)NC(C)Cn1cc(C(=O)O)cn1 (stereo not drawn) [3-D10, 1-[2-(prop-2-enamido)propyl]-1H-pyrazole-4-carboxylic acid]	96
C=CC(=O)N(C)CC1(O)CCc2ccccc21 (stereo not drawn) [3-D11, N-[(1-hydroxy-2,3-dihydro-1H-inden-1-yl)methyl]-N-methylprop-2-enamide]	58.6
C=CC(=O)N1CCC(C(=O)NCc2cn3ccc(C)nc3n2)CC1 [3-D12, N-({7-methylimidazo[1,2-a]pyrimidin-2-yl}methyl)-1-(prop-2-enoyl)piperidine-4-carboxamide]	75.3
C#CCN(C(=O)c1ccc(NC(=O)C=C)cc1)C1CCCCC1 [3-D13, N-cyclohexyl-4-(prop-2-enamido)-N-(prop-2-yn-1-yl)benzamide]	15.9
C=CC(=O)NCc1ccc2oc(=O)[nH]c2c1 [3-D14, N-[(2-oxo-2,3-dihydro-1,3-benzoxazol-5-yl)methyl]prop-2-enamide]	103
C=CC(=O)N(C)CC(=O)N1CCCc2ccccc21 [3-D15, N-methyl-N-[2-oxo-2-(1,2,3,4-tetrahydroquinolin-1-yl)ethyl]prop-2-enamide]	65.7
C=CC(=O)Nc1cccc(NS(=O)(=O)C2CC2)c1 [3-D16, N-(3-cyclopropanesulfonamidophenyl)prop-2-enamide]	80.5

SMILES	viability at 48 h, 25 µM [%]
C=CC(=O)N1CCCC(S(=O)(=O)NC)C1 (stereo not drawn) [3-D17, N-methyl-1-(prop-2-enoyl)piperidine-3-sulfonamide]	67.5
C=CC(=O)N[C@H]1C[C@H](S(C)(=O)=O)C1 [3-D18, N-[(1r,3r)-3-methanesulfonylcyclobutyl]prop-2-enamide]	83.6
C=CC(=O)N1CCC=C(c2cn(C(C)C)nn2)CC1 [3-D19, 1-{4-[1-(propan-2-yl)-1H-1,2,3-triazol-4-yl]-2,3,6,7-tetrahydro-1H-azepin-1-yl}prop-2-en-1-one]	78.1
C=CC(=O)N1CCN(S(=O)(=O)CC)CC1 [3-D20, 1-[4-(ethanesulfonyl)piperazin-1-yl]prop-2-en-1-one]	106
C=CC(=O)NC(c1nc(C)cs1)C1CC1 (stereo not drawn) [3-D21, N-[cyclopropyl(4-methyl-1,3-thiazol-2-yl)methyl]prop-2-enamide]	74.9
C=CC(=O)N1CCCc2c(OCC(N)=O)cccc21 [3-D22, 2-{[1-(prop-2-enoyl)-1,2,3,4-tetrahydroquinolin-5-yl]oxy}acetamide]	95.2
C=CC(=O)NC[C@@H]1CCCN1c1ccccc1 [3-E03, N-{[(2S)-1-phenylpyrrolidin-2-yl]methyl}prop-2-enamide]	60.1
C=CC(=O)Nc1ccc(C(=O)N2CCC(C)(C)S(=O)(=O)CC2)cc1 [3-E04, N-[4-(7,7-dimethyl-1,1-dioxo-1lambda6,4-thiazepane-4-carbonyl)phenyl]prop-2-enamide]	78.6
C=CC(=O)N1CCC(c2nc(C)no2)CC1 [3-E05, 1-[4-(3-methyl-1,2,4-oxadiazol-5-yl)piperidin-1-yl]prop-2-en-1-one]	49.7
C=CC(=O)N1CCC(C(=O)N2CCOc3cc(F)ccc3C2)CC1 [3-E06, 1-[4-(8-fluoro-2,3,4,5-tetrahydro-1,4-benzoxazepine-4-carbonyl)piperidin-1-yl]prop-2-en-1-one]	67.9
C=CC(=O)N1CCC(C(=O)NCCc2cc[nH]n2)CC1 [3-E07, 1-(prop-2-enoyl)-N-[2-(1H-pyrazol-3-yl)ethyl]piperidine-4-carboxamide]	34.2
C=CC(=O)N1CCC(C(=O)N2CCC(OC)(C(F)(F)F)CC2)CC1 [3-E08, 1-{4-[4-methoxy-4-(trifluoromethyl)piperidine-1-carbonyl]piperidin-1-yl}prop-2-en-1-one]	98.2
C=CC(=O)N1CCOC(c2cccc(OC)c2)C1 (stereo not drawn) [3-E09, 1-[2-(3-methoxyphenyl)morpholin-4-yl]prop-2-en-1-one]	34.5
C=CC(=O)NCCC(=O)N1CCCC1c1cn(C)nc1C (stereo not drawn) [3-E10, N-{3-[2-(1,3-dimethyl-1H-pyrazol-4-yl)pyrrolidin-1-yl]-3-oxopropyl}prop-2-enamide]	95.2
C=CC(=O)N1CCCC2(CCCOC2)C1 (stereo not drawn) [3-E11, 1-{2-oxa-8-azaspiro[5.5]undecan-8-yl}prop-2-en-1-one]	46.3
C=CC(=O)N1CCC([C@@H](C)O)CC1 [3-E12, 1-{4-[(1R)-1-hydroxyethyl]piperidin-1-yl}prop-2-en-1-one]	104
C=CC(=O)Nc1ccc(C(=O)N2CCCCC2c2n[nH]c(C)n2)cc1 (stereo not drawn) [3-E13, N-{4-[2-(5-methyl-1H-1,2,4-triazol-3-yl)piperidine-1-carbonyl]phenyl}prop-2-enamide]	34.9
C=CC(=O)N(C)CC(=O)NC(C)(C)c1nc(C)cs1 [3-E14, N-methyl-N-({[2-(4-methyl-1,3-thiazol-2-yl)propan-2-yl]carbamoyl}methyl)prop-2-enamide]	87.9
